This is an account of results in US12559492B2, “BRAF degraders” (C4 Therapeutics, Inc., priority 2020, dated 2026).

In the assay the target is BRAF^V600E protein (Homo sapiens, UniProt P15056, V600E). In words: HiBiT cellular BRAF V600E degradation assay. The class given is cell-based. Conditions: 24 h incubation; for DC50: A375.10 cells (HiBiT tag knocked in at N-terminal of BRAF V600E), concentration at which 50% of total cellular BRAF V600E is degraded; for Emax: read-out: HiBit 24 h Emax. The text has this:
DMEM no-phenol red medium supplemented with L-glutamine was purchased from (Corning). Fetal bovine serum (FBS) was purchased from Gibco (Grand Island, NY, USA). Nano-Glo® HiBiT Lytic Assay Buffer & Reagents were purchased from Promega (Madison, WI, USA). […] Cell culture flasks and 384-well black flat-bottom polystyrene TC-treated microplates were acquired from Corning (Corning, NY, USA).
HiBiT Cellular BRAFv^600E Degradation Assay
Prior to the assay, the A375.10 cell line is maintained in DMEM no-phenol red medium supplemented with 10% fetal bovine serum (FBS). […] Briefly, test compounds were added to the 384-well plate from a top concentration of 10 μM with 11 half log dilutions of compound, plated in duplicate. Then, 30 uL of a suspension of A375.10 cell lines was dispensed into columns 1-24 of the 384-well plates at a cell density of 7500 cells per well. The plates were kept at 37° C. with 5% CO2 for the duration of the assay (6 or 24 hr). After the desired incubation time with compound, 30 uL of Nano-Glo® HiBiT Lytic Buffer containing LgBiT protein (diluted 1:100) and luminescence substrate (diluted 1:50) were added to the cells in columns 1-23 of the assay plate. The plate was the incubated for 30 min on the bench at room temperature. Finally, HiBiT luminescence signal was acquired on EnVision™ Multilabel Reader (PerkinElmer, Santa Clara, CA, USA).
Quantification of luminescence responses measured in the presence of compound were normalized to a high signal/no degradation control (untreated cells+lytic detection reagent) and a low signal/full degradation control (untreated cells, no lytic detection reagent). Data were analyzed with a 4-parameter logistic fit to generate sigmoidal dose-response curves. […] The Emax, or maximum effect of each compound, represents the amount of residual protein remaining in the cell following compound treatment.

[1] abbreviates: A375.10 cells, Emax = amount of residual protein remaining in the cell after compound treatment.

Chain of BRAF^V600E protein (P15056 whole entry V600E): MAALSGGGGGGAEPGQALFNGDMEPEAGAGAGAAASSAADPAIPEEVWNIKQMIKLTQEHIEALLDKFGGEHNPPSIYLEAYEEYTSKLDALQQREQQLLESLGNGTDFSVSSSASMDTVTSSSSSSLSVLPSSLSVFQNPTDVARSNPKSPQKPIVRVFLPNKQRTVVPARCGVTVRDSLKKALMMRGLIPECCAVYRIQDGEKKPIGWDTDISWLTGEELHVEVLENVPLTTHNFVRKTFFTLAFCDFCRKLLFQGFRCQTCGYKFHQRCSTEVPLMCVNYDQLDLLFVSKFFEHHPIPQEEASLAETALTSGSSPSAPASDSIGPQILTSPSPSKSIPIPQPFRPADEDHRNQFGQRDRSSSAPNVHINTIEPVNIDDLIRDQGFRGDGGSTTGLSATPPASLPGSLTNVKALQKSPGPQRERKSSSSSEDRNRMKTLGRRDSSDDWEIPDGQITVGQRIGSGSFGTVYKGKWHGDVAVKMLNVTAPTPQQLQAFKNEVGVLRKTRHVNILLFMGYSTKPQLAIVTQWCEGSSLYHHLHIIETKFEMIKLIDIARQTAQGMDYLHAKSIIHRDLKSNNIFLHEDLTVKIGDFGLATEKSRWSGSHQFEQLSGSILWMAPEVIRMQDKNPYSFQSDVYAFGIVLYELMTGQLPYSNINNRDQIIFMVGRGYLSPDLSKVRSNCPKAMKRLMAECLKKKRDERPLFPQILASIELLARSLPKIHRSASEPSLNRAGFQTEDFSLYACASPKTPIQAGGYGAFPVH

Usually DC50 stands for the concentration at which degradation of the target reaches its halfway point. A higher DC50 goes with a less potent degrader. One may read the Emax as the maximal effect, on the per cent scale that the assay sets. Consider `CCN(C)S(=O)(=O)Nc1ccc(F)c(C(=O)c2c[nH]c3ncc(-c4cnc(N5CCN(C(=O)CC6(O)CCN(c7ccc(C8CCC(=O)NC8=O)cc7F)CC6)CC5)nc4)cc23)c1F` (racemic) [Example 158, 5-[2-[4-[2-[1-[4-(2,6-dioxo-3-piperidyl)-2-fluoro-phenyl]-4-hydroxy-4-piperidyl]acetyl]piperazin-1-yl]pyrimidin-5-yl]-3-[3-[[ethyl(methyl)sulfamoyl]amino]-2,6-difluoro-benzoyl]-1H-pyrrolo[2,3-b]pyridine], for which half-maximal degradation (DC50) was put at 2.73 nM. Moreover, the Emax under setting [1] is 9.38%.

`CCN(C)S(=O)(=O)Nc1ccc(F)c(C(=O)c2c[nH]c3ncc(-c4ccc(N5C[C@H]6CC[C@@H](C5)N6C(=O)CN5CCC(c6ccc(NC7CCC(=O)NC7=O)cc6)CC5)nc4)cc23)c1F` (mixture of isomers) [Example A71, 3-[3-[[Ethyl(methyl)sulfamoyl]amino]-2,6-difluorobenzoyl]-5-[6-[rac-(1R,5S)-8-[2-[4-[4-[(2,6-dioxopiperidin-3-yl)amino]phenyl]piperidin-1-yl]acetyl]-3,8-diazabicyclo[3.2.1]octan-3-yl]pyridin-3-yl]-1H-pyrrolo[2,3-b]pyridine] returned a DC50 of 28 nM. Further, under setting [1], the Emax is 23%.

As for `O=C1CCC(Nc2ccc(C3CCN(CC(=O)N4[C@@H]5CCC[C@H]4CN(c4ccc(-c6cnc7[nH]cc(C(=O)c8c(F)ccc(NS(=O)(=O)N9CCCC9)c8F)c7c6)cn4)C5)CC3)cc2)C(=O)N1` (mixture of isomers) [Example A84, N-[2,4-Difluoro-3-[5-[6-[rac-(1R,5S)-9-[2-[4-[4-[(2,6-dioxopiperidin-3-yl)amino]phenyl]piperidin-1-yl]acetyl]-3,9-diazabicyclo[3.3.1]nonan-3-yl]pyridin-3-yl]-1H-pyrrolo[2,3-b]pyridine-3-carbonyl]phenyl]pyrrolidine-1-sulfonamide], the DC50 was 11 nM. The Emax under setting [1] stood at 11%.

`CCN(C)S(=O)(=O)Nc1ccc(F)c(C(=O)c2c[nH]c3ncc(-c4cnc(N5CCN(C(=O)CC6CCC(c7ccc(NC8CCC(=O)NC8=O)cc7)CC6)CC5)nc4)cc23)c1F` (single isomer, unassigned) [Example 35, 5-[2-[4-[2-[4-[4-[(2,6-dioxo-3-piperidyl)amino]phenyl]cyclohexyl]acetyl]piperazin-1-yl]pyrimidin-5-yl]-3-[3-[[ethyl(methyl)sulfamoyl]amino]-2,6-difluoro-benzoyl]-1H-pyrrolo[2,3-b]pyridine] displayed a DC50 of 25 nM. In addition, the Emax under setting [1] worked out at 23.1%.

As for `CCN(C)S(=O)(=O)Nc1ccc(F)c(C(=O)c2c[nH]c3ncc(-c4cnc(N5CCN(C(=O)CC6CCC(c7ccc(NC8CCC(=O)NC8=O)cc7)CC6)CC5)nc4)cc23)c1F` (single isomer, unassigned) [Example 36, 5-[2-[4-[2-[4-[4-[(2,6-dioxo-3-piperidyl)amino]phenyl]cyclohexyl]acetyl]piperazin-1-yl]pyrimidin-5-yl]-3-[3-[[ethyl(methyl)sulfamoyl]amino]-2,6-difluoro-benzoyl]-1H-pyrrolo[2,3-b]pyridine], the DC50 came out at 21 nM. Also, the “HiBit 24 h Emax” value under setting [1] was 16.12%.

Take `[2H][C@@]1(c2ccc(N3CCC(O)(CC(=O)N4CCN(c5ncc(-c6cnc7[nH]cc(C(=O)c8c(F)ccc(NS(=O)(=O)N(C)CC)c8F)c7c6)cn5)CC4)CC3)c(F)c2)CCC(=O)NC1=O` (single isomer, unassigned) [Example 158c]: it took 1.99 nM to reach half-maximal degradation (DC50). Besides, the Emax under setting [1] came to 7.84%.

For the molecule `[2H][C@]1(c2ccc(N3CCC(O)(CC(=O)N4CCN(c5ncc(-c6cnc7[nH]cc(C(=O)c8c(F)ccc(NS(=O)(=O)N(C)CC)c8F)c7c6)cn5)CC4)CC3)c(F)c2)CCC(=O)NC1=O` (single isomer, unassigned) [Example 158d], it took 205 nM to reach half-maximal degradation (DC50). Besides, the Emax under setting [1] came out at 11.6%.

`CCN(C)S(=O)(=O)Nc1ccc(F)c(C(=O)c2c[nH]c3ncc(-c4cnc(N5CCN(C(=O)CC6(O)CCN(c7ccc(N[C@H]8CCC(=O)NC8=O)cc7F)CC6)CC5)nc4)cc23)c1F` (single isomer, unassigned) [Example 166] returned a DC50 of 2.82 nM. The Emax under setting [1] came out at 8.9%.

Regarding `CCN(C)S(=O)(=O)Nc1ccc(F)c(C(=O)c2c[nH]c3ncc(-c4cnc(N5CCN(C(=O)CN6CCC(c7ccc(N[C@@H]8CCC(=O)NC8=O)cc7)CC6)CC5)nc4)cc23)c1F` (single isomer, unassigned) [Example A103], the DC50 is 4 nM. The Emax under setting [1] was 6%.

Regarding `CCN(C)S(=O)(=O)Nc1ccc(F)c(C(=O)c2c[nH]c3ncc(-c4cnc(N5CCN(C(=O)CN6CCC(c7ccc(N[C@H]8CCC(=O)NC8=O)cc7)CC6)CC5)nc4)cc23)c1F` (single isomer, unassigned) [Example A111], it took 4 nM to reach half-maximal degradation (DC50). Moreover, the Emax under setting [1] amounted to 7%.

In turn, `CCN(C)S(=O)(=O)Nc1ccc(F)c(C(=O)c2c[nH]c3ncc(-c4ccc(N5CCN(C(=O)CN6CCC(c7ccc(NC8CCC(=O)NC8=O)cc7)C(F)(F)C6)CC5)nc4)cc23)c1F` (stereo in doubt) [Example 77, 5-[6-[4-[2-[(4R)-4-[4-[(2,6-dioxo-3-piperidyl)amino]phenyl]-3,3-difluoro-1-piperidyl]acetyl]piperazin-1-yl]-3-pyridyl]-3-[3-[[ethyl(methyl)sulfamoyl]amino]-2,6-difluoro-benzoyl]-1H-pyrrolo[2,3-b]pyridine] registered a DC50 of 3.49 nM. Further, the Emax under setting [1] is 9.19%.

In the case of `CCCS(=O)(=O)Nc1ccc(F)c(C(=O)c2c[nH]c3ncc(-c4cnc(N5CCN(C(=O)CN6CCC(c7ccc(NC8CCC(=O)NC8=O)cc7)CC6)CC5)nc4)cc23)c1F` (stereo not shown) [Example 1, N-[3-[5-[2-[4-[2-[4-[4-[(2,6-dioxo-3-piperidyl)amino]phenyl]-1-piperidyl]acetyl]piperazin-1-yl]pyrimidin-5-yl]-1H-pyrrolo[2,3-b]pyridine-3-carbonyl]-2,4-difluoro-phenyl]propane-1-sulfonamide], the DC50 was found to be 0.79 nM. Also, the Emax under setting [1] worked out at 7.81%.

`CCCS(=O)(=O)Nc1ccc(F)c(C(=O)c2c[nH]c3ncc(-c4cnc(N5CCN(C(=O)CN6CCC(c7ccc(OC8CCC(=O)NC8=O)cc7)CC6)CC5)nc4)cc23)c1F` (stereo not shown) [Example 2, N-[3-[5-[2-[4-[2-[4-[4-[(2,6-dioxo-3-piperidyl)oxy]phenyl]-1-piperidyl]acetyl]piperazin-1-yl]pyrimidin-5-yl]-1H-pyrrolo[2,3-b]pyridine-3-carbonyl]-2,4-difluoro-phenyl]propane-1-sulfonamide] had a DC50 of 12.2 nM. Also, the Emax under setting [1] is 7.81%.

For `CCCS(=O)(=O)Nc1ccc(F)c(C(=O)c2c[nH]c3ncc(-c4ccc(N5CCN(C(=O)CN6CCC(c7ccc(NC8CCC(=O)NC8=O)cc7)CC6)CC5)nc4)cc23)c1F` (stereo not shown) [Example 3, N-[3-[5-[6-[4-[2-[4-[4-[(2,6-dioxo-3-piperidyl)amino]phenyl]-1-piperidyl]acetyl]piperazin-1-yl]-3-pyridyl]-1H-pyrrolo[2,3-b]pyridine-3-carbonyl]-2,4-difluoro-phenyl]propane-1-sulfonamide], it took 3.04 nM to reach half-maximal degradation (DC50). For the same molecule, under setting [1], the Emax was found to be 9.6%.

As for `CC(C)S(=O)(=O)Nc1ccc(F)c(C(=O)c2c[nH]c3ncc(-c4cnc(N5CCN(C(=O)CN6CCC(c7ccc(NC8CCC(=O)NC8=O)cc7)CC6)CC5)nc4)cc23)c1F` (stereo not shown) [Example 5, N-[3-[5-[2-[4-[2-[4-[4-[(2,6-dioxo-3-piperidyl)amino]phenyl]-1-piperidyl]acetyl]piperazin-1-yl]pyrimidin-5-yl]-1H-pyrrolo[2,3-b]pyridine-3-carbonyl]-2,4-difluoro-phenyl]propane-2-sulfonamide], it took 3.94 nM to reach half-maximal degradation (DC50). Further, under setting [1], the Emax is 8.8%.

For `CC(C)S(=O)(=O)Nc1ccc(F)c(C(=O)c2c[nH]c3ncc(-c4cnc(N5CCN(C(=O)CN6CCC(c7ccc(NC8CCC(=O)NC8=O)cc7F)CC6)CC5)nc4)cc23)c1F` (stereo not shown) [Example 6, N-[3-[5-[2-[4-[2-[4-[4-[(2,6-dioxo-3-piperidyl)amino]-2-fluoro-phenyl]-1-piperidyl]acetyl]piperazin-1-yl]pyrimidin-5-yl]-1H-pyrrolo[2,3-b]pyridine-3-carbonyl]-2,4-difluoro-phenyl]propane-2-sulfonamide], the half-maximal degradation concentration (DC50) was 5.59 nM. Also, under setting [1], the Emax was found to be 7.96%.

Take `CC(C)S(=O)(=O)Nc1ccc(F)c(C(=O)c2c[nH]c3ncc(-c4cnc(N5CCN(C(=O)CN6CCC(c7ccc(OC8CCC(=O)NC8=O)cc7)CC6)CC5)nc4)cc23)c1F` (stereo not shown) [Example 7, N-[3-[5-[2-[4-[2-[4-[4-[(2,6-dioxo-3-piperidyl)oxy]phenyl]-1-piperidyl]acetyl]piperazin-1-yl]pyrimidin-5-yl]-1H-pyrrolo[2,3-b]pyridine-3-carbonyl]-2,4-difluoro-phenyl]propane-2-sulfonamide]: half-maximal degradation (DC50) was put at 12.5 nM. Further, the Emax under setting [1] was found to be 10.3%.
